In experiment [1] the target is FAK (focal adhesion kinase) (Homo sapiens, UniProt Q05397). Briefly: in vitro kinase assay, Kinase-Glo luminescence. Format: biochemical. To be noted: read-out: FAK inhibition 1 μM ^a. For orientation: In Kinase-Glo more light means more ATP remaining.
Experiment [2] deals with Pyk2 (Homo sapiens, UniProt Q14289). The experiment can be described thus: in vitro kinase assay. Format: biochemical. To be noted: read-out: Pyk2 inhibition 1 μM ^a.
Chain of Pyk2 (Q14289 whole entry): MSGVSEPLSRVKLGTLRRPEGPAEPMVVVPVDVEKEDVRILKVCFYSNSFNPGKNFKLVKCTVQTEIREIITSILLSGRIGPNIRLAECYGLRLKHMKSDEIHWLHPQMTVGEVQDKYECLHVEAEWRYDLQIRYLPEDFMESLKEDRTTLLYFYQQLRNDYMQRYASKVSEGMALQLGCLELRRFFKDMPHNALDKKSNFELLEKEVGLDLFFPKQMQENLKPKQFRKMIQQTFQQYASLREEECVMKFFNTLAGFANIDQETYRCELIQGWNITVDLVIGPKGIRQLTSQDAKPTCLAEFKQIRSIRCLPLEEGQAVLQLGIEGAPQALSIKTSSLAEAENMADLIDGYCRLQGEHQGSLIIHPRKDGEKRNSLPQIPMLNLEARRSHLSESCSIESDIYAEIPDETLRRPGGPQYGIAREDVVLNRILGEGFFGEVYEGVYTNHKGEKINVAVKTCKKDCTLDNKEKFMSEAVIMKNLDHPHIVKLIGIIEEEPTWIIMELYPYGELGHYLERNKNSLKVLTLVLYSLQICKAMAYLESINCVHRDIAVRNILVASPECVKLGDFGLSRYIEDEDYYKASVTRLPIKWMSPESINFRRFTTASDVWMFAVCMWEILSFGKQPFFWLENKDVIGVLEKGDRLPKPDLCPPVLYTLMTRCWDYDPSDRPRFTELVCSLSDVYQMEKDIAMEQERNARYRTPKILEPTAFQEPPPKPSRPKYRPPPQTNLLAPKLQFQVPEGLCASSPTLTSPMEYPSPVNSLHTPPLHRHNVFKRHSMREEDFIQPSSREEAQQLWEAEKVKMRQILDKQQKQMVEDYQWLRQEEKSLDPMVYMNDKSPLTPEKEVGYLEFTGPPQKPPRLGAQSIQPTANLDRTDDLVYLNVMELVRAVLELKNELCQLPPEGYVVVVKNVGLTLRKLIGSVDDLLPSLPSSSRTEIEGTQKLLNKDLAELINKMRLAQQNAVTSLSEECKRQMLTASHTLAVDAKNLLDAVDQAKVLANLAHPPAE

Chain of FAK (focal adhesion kinase) (Q05397 2-1052): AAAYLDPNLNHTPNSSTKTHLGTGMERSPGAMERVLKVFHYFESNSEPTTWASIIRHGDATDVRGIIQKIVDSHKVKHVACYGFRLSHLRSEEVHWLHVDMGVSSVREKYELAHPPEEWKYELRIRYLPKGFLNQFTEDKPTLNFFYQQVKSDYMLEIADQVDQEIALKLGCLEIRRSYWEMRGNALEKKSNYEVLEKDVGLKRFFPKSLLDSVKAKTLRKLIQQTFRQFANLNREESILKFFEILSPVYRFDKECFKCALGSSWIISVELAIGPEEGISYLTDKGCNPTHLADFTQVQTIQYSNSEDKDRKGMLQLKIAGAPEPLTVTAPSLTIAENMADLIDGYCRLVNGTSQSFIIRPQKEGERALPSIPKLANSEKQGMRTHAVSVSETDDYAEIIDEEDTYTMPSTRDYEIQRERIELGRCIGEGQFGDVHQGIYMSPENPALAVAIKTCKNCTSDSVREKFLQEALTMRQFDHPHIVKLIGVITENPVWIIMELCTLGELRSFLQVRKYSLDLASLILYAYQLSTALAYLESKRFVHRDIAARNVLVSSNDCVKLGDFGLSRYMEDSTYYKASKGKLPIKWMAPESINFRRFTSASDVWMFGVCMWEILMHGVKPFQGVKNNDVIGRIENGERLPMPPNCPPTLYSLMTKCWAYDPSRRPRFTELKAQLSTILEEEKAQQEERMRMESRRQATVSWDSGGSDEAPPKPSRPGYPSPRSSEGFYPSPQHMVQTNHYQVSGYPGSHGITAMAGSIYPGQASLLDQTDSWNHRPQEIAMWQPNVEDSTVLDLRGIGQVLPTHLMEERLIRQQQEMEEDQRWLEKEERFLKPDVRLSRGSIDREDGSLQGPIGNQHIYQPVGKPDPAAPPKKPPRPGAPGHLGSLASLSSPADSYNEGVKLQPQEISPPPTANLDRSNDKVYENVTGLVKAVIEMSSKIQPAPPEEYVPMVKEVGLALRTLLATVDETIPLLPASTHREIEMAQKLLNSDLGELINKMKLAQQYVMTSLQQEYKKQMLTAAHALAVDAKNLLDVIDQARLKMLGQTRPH

As for `c1nc2nc(Nc3ccc(N4CCOCC4)cc3)nc(NC3CCCCC3)c2[nH]1` [reversine], the inhibition at 1 µM amounted to 70% in experiment [1] and 82% in experiment [2].

For orientation: inhibition means the relative decrease from the control value, in per cent.

The values are drawn from paper PMC3844920 (British Journal of Cancer, 2013).
